Assay results taken from patent US7259146B2, “Neuroprotective peptides” (Ortho-McNeil Pharmaceutical, Inc., priority 2000, dated 2007).

Experiments:
rat hippocampal cultures = assay: Neurite outgrowth assay (MAP2-FITC immunofluorescence), hippocampal cultures; type: cell-based; settings: for overall neurite outgrowth response, hippocampal versus cortical cultures: comparison of hippocampal and cortical cultures; for dose-response profile: 10 fM-10 nM
Excerpt: (§1) Dissociated hippocampal and cortical cell cultures were established from embryonic day 18 rat fetuses as previously described (Mattson et al., 1994). Briefly, fetuses were removed via cesarean section from pregnant moms (Sprague-Dawley) anesthetized with halothane according to the AVMA Panel on Euthanasia. Pups were decapitated and the brains were removed and placed in HEPES-buffered Hank's Balanced Salt solution (HBSS; Gibco). The hippocampi and cortices were dissected out and pooled according to tissue-type. Tissue was trypsinized for 15 min (1 mg/ml trypsin-HBSS; Worthington), rinsed with fresh HBSS, incubated in trypsin inhibitor (1 mg/ml; Sigma) for 5 min, rinsed again with fresh HBSS and then triturated in 1 ml fresh HBSS with a fire-polished glass pipette. Dissociated cells were seeded at 30,000 cells/well onto poly-D-lysine coated 96-well plates (Collaborative BioScience). Each well contained 100 μl of Eagle's Minimal Essential Media (MEM; Gibco) supplemented with 26 mM NaHCO3 (Sigma), 56 mM glucose (Sigma), 15 mM KCl (Sigma), 1 mM sodium pyruvate (Sigma), 1.1 mM L-glutamine (Sigma), 10% (v/v) heat-inactivated fetal bovine serum (Hyclone), and 0.001% gentamicin sulfate (Sigma) (pH 7.4). Cells were allowed to attach for 24 h in a humidified 37° C. 5% CO2 incubator before experimental treatment. The culture media was aspirated and exchanged with fresh media every three days.
(§2) Twenty-four hours after plating, cultures were treated with vehicle (PBS+0.1% BSA), 100 ng of various growth factors (brain derived neurotrophic factor (BDNF; Promega), glial-derived neurotrophic factor (GDNF; Promega), nerve growth factor (NGF; Boehringer Mannheim), basic fibroblast growth factor (bFGF; Boehringer Mannheim), insulin-like growth factor-1 (IGF-1; Boehringer Mannheim), neurotrophin-3 (NT3; Calbiochem), neurotrophin-4 (NT4; Calbiochem), ciliary neurotrophic factor (CNTF; Calbiochem), epidermal growth factor (EGF; Calbiochem), vascular endothelial growth factor (VEGF; Calbiochem)), or rhEPO (prepared same as above; 10 fM-10 nM)). Each treatment condition was run in quadruplicate or octuplicate. On the third day in culture, the media was aspirated off and replaced with fresh media and test compound. At one week in culture, the cells were fixed with 10% phosphate-buffered formalin for 15 min, then rinsed with DPBS (Sigma) and placed in blocking serum for 30 min (horse serum; 1:50 dilution in DPBS; Vector Labs). Cultures were rinsed again with DPBS and then incubated in primary antibody for 2 hr (microtubule-associated protein-2 (MAP-2) is a selective marker for dendritic processes; anti-mouse monoclonal (Chemicon); 1:1000 dilution of MAP-2 in antibody diluent (Zymed)). Negative control wells were incubated in antibody diluent alone. Background signal was determined by blank wells (cell-free) incubated with or without antibody. Cultures were rinsed again with DPBS and then placed in fluorescein for 1 hr (FITC; anti-mouse IgG; rat adsorbed; 1:50 dilution in DPBS; Vector Labs). Cultures were rinsed a final time with DPBS and then the plates were read on a Cytofluor 4000 fluorescence plate reader. Neurite outgrowth was expressed as percent change from control (vehicle; mean fluorescence±SD).
(§3) Dissociated hippocampal and cortical cell cultures were established from embryonic day 18 rat fetuses as previously described (Mattson et al., 1994). Briefly, fetuses were removed via cesarean section from pregnant moms (Sprague-Dawley) anesthetized with halothane according to the AVMA Panel on Euthanasia. Pups were decapitated and the brains were removed and placed in HEPES-buffered Hank's Balanced Salt solution (HBSS; Gibco). The hippocampi and cortices were dissected out and pooled according to tissue-type. […]

[1] = system: rat cerebral cortical cultures; assay: Neurite outgrowth assay (MAP2-FITC immunofluorescence), cortical cultures; type: cell-based; settings: for dose-response profile: 10 fM-10 nM
Excerpt: as §1, §2, §3

Sequence	overall neurite outgrowth response, hippocampal versus cortical cultures (rat hippocampal cultures)	neurite outgrowth (in words) (rat hippocampal cultures; hippocampal cultures)	dose-response profile (rat hippocampal cultures; hippocampal cultures)	neurite outgrowth (in words) [1]	dose-response profile [1]	neurite outgrowth at peak activity, increase over vehicle (rat hippocampal cultures; hippocampal cultures, EMP 10 fM-10 nM, one week in culture)
GGTASCHFGPLTWVCKPQGG [EMP-6]	robust neurite outgrowth activity in both hippocampal and cortical cultures	promotes neurite outgrowth	typical bell-shaped dose-response profiles	promotes neurite outgrowth	typical bell-shaped dose-response profiles	
GGTYSCFGPLTWVCKPQGG [EMP-27]	less impressive overall	promotes neurite outgrowth	flat response profile	promotes neurite outgrowth	flat response overall	
GGTYSCHFAPLTWVCKPQGG [EMP-9]	less impressive overall	promotes neurite outgrowth	flat response profile	promotes neurite outgrowth	flat response overall	
GGTYSCHFGPLTWVCKPQGG [EMP-1]	selective effects in hippocampal cultures over cortical cultures	promotes neurite outgrowth	typical bell-shaped dose-response profiles	promotes neurite outgrowth	flat response overall	
YCHFGPLTWVC [EMP-23]	effects were greater in cortical cultures than hippocampal cells	promotes neurite outgrowth	modest response	promotes neurite outgrowth	typical bell-shaped dose-response profiles	43–46%
